Source: US20240270751A1, “Pyrazolopyridinone Compounds” (BeiGene Ltd., priority 2021, published 2024)
Read-outs that look alike come from different tables or passages of the source.

What was measured:
[1] = biological target: DGKζ (Homo sapiens (Human), UniProt Q13574); assay: Biochemical DGK IC50 assay, DGKζ ADP-Glo assay; conditions: 0.5 nM enzyme, 140 μM ATP, 80 μM DAG
Procedure, shortened: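 Full-length human DGKζ, His-TEV tagged and purified from baculovirus-infected Sf9 cells, assayed by ADP-Glo with DAG/PS lipid micelle substrate prepared in 25 mM HEPES pH 7.0 with octyl glucoside. Final compound concentrations spanned 1.55–10000 nM or 23.3–150000 nM.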

[2] = biological target: DGKα (Homo sapiens (Human), UniProt P23743); assay: Biochemical DGK IC50 assay, DGKα ADP-Glo assay; conditions: 7.5 nM enzyme, 140 μM ATP, 80 μM DAG
Sequence of DGKα (P23743 whole entry): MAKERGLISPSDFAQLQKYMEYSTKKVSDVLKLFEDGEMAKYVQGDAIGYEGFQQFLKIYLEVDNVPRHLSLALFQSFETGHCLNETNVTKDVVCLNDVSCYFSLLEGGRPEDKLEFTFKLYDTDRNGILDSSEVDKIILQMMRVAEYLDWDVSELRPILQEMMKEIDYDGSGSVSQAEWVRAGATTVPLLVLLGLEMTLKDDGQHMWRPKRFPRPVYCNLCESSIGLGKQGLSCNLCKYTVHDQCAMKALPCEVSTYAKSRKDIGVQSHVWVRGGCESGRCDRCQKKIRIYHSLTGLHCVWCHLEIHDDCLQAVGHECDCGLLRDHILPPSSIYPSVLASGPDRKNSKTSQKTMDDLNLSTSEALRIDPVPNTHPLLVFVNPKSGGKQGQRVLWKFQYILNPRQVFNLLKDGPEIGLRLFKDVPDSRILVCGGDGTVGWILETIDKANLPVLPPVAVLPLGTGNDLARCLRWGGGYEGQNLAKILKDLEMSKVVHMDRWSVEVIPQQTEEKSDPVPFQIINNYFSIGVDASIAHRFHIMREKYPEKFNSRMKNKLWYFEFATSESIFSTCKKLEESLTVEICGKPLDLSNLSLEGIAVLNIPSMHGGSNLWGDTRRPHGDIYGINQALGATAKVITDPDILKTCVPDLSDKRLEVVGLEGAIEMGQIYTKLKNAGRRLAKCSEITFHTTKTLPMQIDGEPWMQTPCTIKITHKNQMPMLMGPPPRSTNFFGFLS
Procedure, shortened: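 ADP-Glo read-out with full-length DGKα on DAG/PS lipid micelle substrate in 25 mM HEPES pH 7.0, 0.5 mM EDTA, 160 mM octyl β-D-glucopyranoside. Compound final concentrations spanned 1.55˜10000 nM or 23.3˜150000 nM.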

[3] = read-out: DGKζ ADP-Glo assay IC50

Sequence of DGKζ (Q13574 other isoform, or with tags, fused parts or gaps): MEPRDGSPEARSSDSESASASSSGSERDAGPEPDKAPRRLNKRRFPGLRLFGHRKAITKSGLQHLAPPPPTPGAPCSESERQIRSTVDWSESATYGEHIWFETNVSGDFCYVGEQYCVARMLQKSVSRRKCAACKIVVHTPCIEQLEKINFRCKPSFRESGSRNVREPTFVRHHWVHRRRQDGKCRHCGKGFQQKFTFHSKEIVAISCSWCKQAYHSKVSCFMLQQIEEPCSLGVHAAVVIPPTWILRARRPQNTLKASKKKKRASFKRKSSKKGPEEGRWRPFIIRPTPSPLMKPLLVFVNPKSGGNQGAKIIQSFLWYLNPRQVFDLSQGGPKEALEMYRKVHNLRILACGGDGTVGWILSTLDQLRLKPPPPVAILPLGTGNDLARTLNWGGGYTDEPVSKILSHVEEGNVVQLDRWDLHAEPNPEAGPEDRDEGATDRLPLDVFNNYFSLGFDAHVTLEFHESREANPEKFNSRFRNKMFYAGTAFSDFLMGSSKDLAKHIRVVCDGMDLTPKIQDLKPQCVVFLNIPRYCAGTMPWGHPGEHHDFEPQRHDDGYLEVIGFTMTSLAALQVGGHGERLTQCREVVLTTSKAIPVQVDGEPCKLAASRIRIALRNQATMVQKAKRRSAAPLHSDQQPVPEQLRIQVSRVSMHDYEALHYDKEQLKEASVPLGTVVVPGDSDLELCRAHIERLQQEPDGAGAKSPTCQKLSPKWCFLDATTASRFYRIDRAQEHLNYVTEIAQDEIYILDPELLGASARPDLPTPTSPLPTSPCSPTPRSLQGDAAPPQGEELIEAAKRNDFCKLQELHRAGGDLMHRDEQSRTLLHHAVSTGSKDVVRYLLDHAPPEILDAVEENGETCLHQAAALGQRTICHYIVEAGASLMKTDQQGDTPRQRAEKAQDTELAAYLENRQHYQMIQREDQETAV

Row | SMILES | IC50 [1, 3] | IC50 [2] | IC50 ([1]; DGKζ ADP-Glo assay IC50(nM))
1 | CC(c1ccc2nccnc2c1)N1C[C@H](C(F)F)N(c2cc(=O)n(C)c3cn(CC#N)nc23)C[C@H]1C (stereo partly drawn) [Compound A261, 2-(7-((2R,5R)-2-(difluoromethyl)-5-methyl-4-(1-(quinoxalin-6-yl)ethyl)piperazin-1-yl)-4-methyl-5-oxo-4,5-dihydro-2H-pyrazolo[4,3-b]pyridin-2-yl)acetonitrile] | 2350 nM | > 10 µM | –
2 | C[C@@H]1CN(c2cc(=O)n(C)c3cn(CC#N)nc23)[C@@H](C)CN1C(c1ccc2nccnc2c1)C(F)F (stereo partly drawn) [Compound A262, 2-(7-((2S,5R)-4-(2,2-difluoro-1-(quinoxalin-6-yl)ethyl)-2,5-dimethylpiperazin-1-yl)-4-methyl-5-oxo-4,5-dihydro-2H-pyrazolo[4,3-b]pyridin-2-yl)acetonitrile] | 150 nM | > 10 µM | –
3 | C[C@@H]1CN(c2cc(=O)n(C)c3c(Cl)n(CC#N)nc23)[C@@H](C)CN1[C@H](C)c1ccc2nccnc2c1 [Compound A263, 2-(3-chloro-7-((2S,5R)-2,5-dimethyl-4-((R)-1-(quinoxalin-6-yl)ethyl)piperazin-1-yl)-4-methyl-5-oxo-4,5-dihydro-2H-pyrazolo[4,3-b]pyridin-2-yl)acetonitrile, or 2-(3-chloro-7-((2S,5R)-2,5-dimethyl-4-((S)-1-(quinoxalin-6-yl)ethyl)piperazin-1-yl)-4-methyl-5-oxo-4,5-dihydro-2H-pyrazolo[4,3-b]pyridin-2-yl)acetonitrile] | 85 nM | 41.8 µM | –
4 | CC[C@@H]1CN(c2cc(=O)[nH]c3c(C)n(CC#N)nc23)[C@@H](C)CN1C(C)c1ccc2nccnc2c1 (some centres unmarked) [Compound A264] | 215 nM | > 10 µM | –
5 | CC[C@H]1CN(C(C)c2ccc(F)cc2C(F)(F)F)[C@H](CC)CN1c1cc(=O)[nH]c2cn(CC#N)nc12 (stereo partly drawn) [Compound A265, 2-(7-((2S,5R)-2,5-diethyl-4-(1-(4-fluoro-2-(trifluoromethyl)phenyl)ethyl)piperazin-1-yl)-5-oxo-4,5-dihydro-2H-pyrazolo[4,3-b]pyridin-2-yl)acetonitrile] | 736 nM | > 10 µM | –
6 | [2H]c1nc2ccc(C(C)N3C[C@H](C)N(c4cc(=O)n(C)c5cn(CC#N)nc45)C[C@H]3C)cc2nc1[2H] (stereo partly drawn) [Compound A268, 2-(7-((2S,5R)-2,5-dimethyl-4-(1-(quinoxalin-6-yl-2,3-d2)ethyl)piperazin-1-yl)-4-methyl-5-oxo-4,5-dihydro-2H-pyrazolo[4,3-b]pyridin-2-yl)acetonitrile] | – | 16.3 µM | 133 nM
7 | Cc1cnc2ccc(C(C)N3C[C@H](C)N(c4cc(=O)n(C)c5cn(CC#N)nc45)C[C@H]3C)cc2n1 (stereo partly drawn) [Compound A269 (RII), 2-(7-((2S,5R)-2,5-dimethyl-4-(1-(3-methylquinoxalin-6-yl)ethyl)piperazin-1-yl)-4-methyl-5-oxo-4,5-dihydro-2H-pyrazolo[4,3-b]pyridin-2-yl)acetonitrile] | 35 nM | > 10 µM | –
8 | Cc1cnc2ccc([C@@H](C)N3C[C@H](C)N(c4cc(=O)n(C)c5cn(CC#N)nc45)C[C@H]3C)cc2n1 [Compound A269c, 2-(7-((2S,5R)-2,5-dimethyl-4-((R)-1-(3-methylquinoxalin-6-yl)ethyl)piperazin-1-yl)-4-methyl-5-oxo-4,5-dihydro-2H-pyrazolo[4,3-b]pyridin-2-yl)acetonitrile] | > 10000 nM | > 10 µM | –
9 | COc1cnc2ccc(C(C)N3C[C@H](C)N(c4cc(=O)n(C)c5cn(CC#N)nc45)C[C@H]3C)cc2n1 (stereo partly drawn) [Compound A270, 2-(7-((2S,5R)-4-(1-(3-methoxyquinoxalin-6-yl)ethyl)-2,5-dimethylpiperazin-1-yl)-4-methyl-5-oxo-4,5-dihydro-2H-pyrazolo[4,3-b]pyridin-2-yl)acetonitrile] | 169 nM | 40.1 µM | –
10 | CC(c1ccc(F)cc1C1(O)COC1)N1C[C@H](C)N(c2cc(=O)n(C)c3cn(CC#N)nc23)C[C@H]1C (stereo partly drawn) [Compound A271, 2-(7-((2S,5R)-4-(1-(4-fluoro-2-(3-hydroxyoxetan-3-yl)phenyl)ethyl)-2,5-dimethylpiperazin-1-yl)-4-methyl-5-oxo-4,5-dihydro-2H-pyrazolo[4,3-b]pyridin-2-yl)acetonitrile] | > 10000 nM | > 10 µM | –
11 | CC(c1c(Cl)cc(F)cc1Cl)N1C[C@H](C)N(c2cc(=O)n(C)c3cn(CC#N)nc23)C[C@H]1C (some centres unmarked) [Compound A272] | 411 nM | > 10 µM | –
12 | COc1c(C(C)N2C[C@H](C)N(c3cc(=O)n(C)c4cn(CC#N)nc34)C[C@H]2C)ccc(F)c1F (some centres unmarked) [Compound A273] | 5550 nM | > 10 µM | –
13 | COc1c(N2C[C@@H](C)N([C@@H](C)c3ccc4nccnc4c3)C[C@@H]2C)c2nn(CC#N)cc2n(C)c1=O [Compound A274, 2-(7-((2S,5R)-2,5-dimethyl-4-((S)-1-(quinoxalin-6-yl)ethyl)piperazin-1-yl)-6-methoxy-4-methyl-5-oxo-4,5-dihydro-2H-pyrazolo[4,3-b]pyridin-2-yl)acetonitrile] | > 10000 nM | > 10 µM | –
14 | [2H]C([2H])([2H])n1c(=O)cc(N2C[C@@H](CC)N(C(C)c3ccc(F)cc3C(F)(F)F)C[C@@H]2CC)c2nn(CC#N)cc21 (stereo partly drawn) [Compound A276, 2-(7-((2S,5R)-2,5-diethyl-4-(1-(4-fluoro-2-(trifluoromethyl)phenyl)ethyl)piperazin-1-yl)-4-(methyl-d3)-5-oxo-4,5-dihydro-2H-pyrazolo[4,3-b]pyridin-2-yl)acetonitrile] | 131 nM | > 150 µM | –
15 | CC[C@H]1CN(C(C)c2ccc(Cl)cc2C(F)(F)F)[C@H](CC)CN1c1cc(=O)n(C)c2cn(CC#N)nc12 (some centres unmarked) [Compound A277] | 2110 nM | > 10 µM | –
16 | CCc1cnc2ccc(C(C)N3C[C@H](C)N(c4cc(=O)n(C)c5cn(CC#N)nc45)C[C@H]3C)cc2n1 (stereo partly drawn) [Compound A278, 2-(7-((2S,5R)-4-(1-(3-ethylquinoxalin-6-yl)ethyl)-2,5-dimethylpiperazin-1-yl)-4-methyl-5-oxo-4,5-dihydro-2H-pyrazolo[4,3-b]pyridin-2-yl)acetonitrile] | 64 nM | 55.1 µM | –
17 | CC(c1ccc2ncc(O)nc2c1)N1C[C@H](C)N(c2cc(=O)n(C)c3cn(CC#N)nc23)C[C@H]1C (stereo partly drawn) [Compound A279, 2-(7-((2S,5R)-4-(1-(3-hydroxyquinoxalin-6-yl)ethyl)-2,5-dimethylpiperazin-1-yl)-4-methyl-5-oxo-4,5-dihydro-2H-pyrazolo[4,3-b]pyridin-2-yl)acetonitrile] | > 10000 nM | > 10 µM | –
18 | CC(c1ccc2ncc(Cl)nc2c1)N1C[C@H](C)N(c2cc(=O)n(C)c3cn(CC#N)nc23)C[C@H]1C (stereo partly drawn) [Compound A280, 2-(7-((2S,5R)-4-(1-(3-chloroquinoxalin-6-yl)ethyl)-2,5-dimethylpiperazin-1-yl)-4-methyl-5-oxo-4,5-dihydro-2H-pyrazolo[4,3-b]pyridin-2-yl)acetonitrile] | 34 nM | 26 µM | –
19 | COc1cnc2cc(C(C)N3C[C@H](C)N(c4cc(=O)n(C)c5cn(CC#N)nc45)C[C@H]3C)ccc2n1 (stereo partly drawn) [Compound A283, 2-(7-((2S,5R)-4-(1-(2-methoxyquinoxalin-6-yl)ethyl)-2,5-dimethylpiperazin-1-yl)-4-methyl-5-oxo-4,5-dihydro-2H-pyrazolo[4,3-b]pyridin-2-yl)acetonitrile] | 881 nM | 12.4 µM | –
20 | CC(c1ccc2nc(O)cnc2c1)N1C[C@H](C)N(c2cc(=O)n(C)c3cn(CC#N)nc23)C[C@H]1C (stereo partly drawn) [Compound A284, 2-(7-((2S,5R)-4-(1-(2-hydroxyquinoxalin-6-yl)ethyl)-2,5-dimethylpiperazin-1-yl)-4-methyl-5-oxo-4,5-dihydro-2H-pyrazolo[4,3-b]pyridin-2-yl)acetonitrile] | > 10000 nM | 6.48 µM | –
21 | CC(c1ccc(F)cc1P(C)(C)=O)N1C[C@H](C)N(c2cc(=O)n(C)c3cn(CC#N)nc23)C[C@H]1C (some centres unmarked) [Compound A285] | > 10000 nM | > 10 µM | –
22 | CC[C@H]1CN(C(C)c2ccc(F)c(F)c2C(F)(F)F)[C@H](CC)CN1c1cc(=O)n(C)c2cn(CC#N)nc12 (some centres unmarked) [Compound A288] | 263 nM | 3.4 µM | –
23 | CC[C@H]1CN(C(C)c2ccc(F)cc2C(N)=O)[C@H](CC)CN1c1cc(=O)n(C)c2cn(CC#N)nc12 (some centres unmarked) [Compound A289] | 1130 nM | > 10 µM | –
24 | CC[C@H]1CN(C(C)c2ccc(F)cc2C(=O)OC)[C@H](CC)CN1c1cc(=O)n(C)c2cn(CC#N)nc12 (some centres unmarked) [Compound A290] | 425 nM | 56.4 µM | –
25 | CC[C@H]1CN(C(C)c2ccc(F)cc2C(=O)N(C)C)[C@H](CC)CN1c1cc(=O)n(C)c2cn(CC#N)nc12 (some centres unmarked) [Compound A292] | 1910 nM | > 150 µM | –
26 | CCC(c1ccc(F)cc1C(F)(F)F)N1C[C@H](CC)N(c2cc(=O)n(C)c3cn(CC#N)nc23)C[C@H]1CC (some centres unmarked) [Compound A293] | 237 nM | 9.95 µM | –
27 | Cc1nc2ccc(C(C)N3C[C@H](C)N(c4cc(=O)n(C)c5cn(CC#N)nc45)C[C@H]3C)cc2nc1C (stereo partly drawn) [Compound A294, 2-(7-((2S,5R)-4-(1-(2,3-dimethylquinoxalin-6-yl)ethyl)-2,5-dimethylpiperazin-1-yl)-4-methyl-5-oxo-4,5-dihydro-2H-pyrazolo[4,3-b]pyridin-2-yl)acetonitrile] | 3860 nM | 69.6 µM | –
28 | CCO[C@@H]1CN(c2cc(=O)n(C)c3cn(CC#N)nc23)CC[C@H]1Oc1cccc(C(F)(F)F)c1 [Compound A295, 2-(7-((3R,4R)-3-ethoxy-4-(3-(trifluoromethyl)phenoxy)piperidin-1-yl)-4-methyl-5-oxo-4,5-dihydro-2H-pyrazolo[4,3-b]pyridin-2-yl)acetonitrile] | 563 nM | 5.69 µM | –
